The values below come from PubChem BioAssay AID248 (DTP/NCI, 2004).

Several values for one entry are separate records, joined by “and”; a condition that tells them apart may be missing. Equal values may be shown once. Toxic doses and inconclusive results are not listed.

In the assay the test system is L1210 leukemia ip in BDF1 mice, survival T/C. The experiment in a line: NCI In Vivo Anticancer Drug Screen. Data for tumor model L1210 Leukemia (intraperitoneal) in B6D2F1 (BDF1) mice. The conditions noted are these: endpoint: mean survival time, higher = longer survival. In outline:
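Tumor cells were implanted, animals were treated, and survival was followed. The result divides the treated measurement by the vehicle-control measurement.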

The mark [1] stands for this setting: dose: 100.0 mg/kg/injection, schedule: Q01DX001 (ip), vehicle: saline.
Setting [2] is: dose: 200.0 mg/kg/injection, schedule: Q01DX001 (ip), vehicle: saline.
[3] abbreviates: dose: 400.0 mg/kg/injection, schedule: Q01DX001 (ip), vehicle: saline.
Where [4] appears, read: dose: 100.0 mg/kg/injection, schedule: Q01DX009 (ip), vehicle: Klucel (hydroxypropylcellulose) (HPC).
[5] abbreviates: dose: 50.0 mg/kg/injection, schedule: Q01DX001 (ip), vehicle: saline.
The mark [6] stands for this setting: dose: 100.0 mg/kg/injection, schedule: Q04DX003 (ip), vehicle: Klucel (hydroxypropylcellulose) (HPC).

On to `COc1ccc(C(=O)OC(c2ccccc2)c2ccccc2)cc1`, for which the T/C is, setting by setting: under setting [1], 98 % of control; under setting [2], 100 % of control; under setting [3], 89 % of control.
In the case of `Cc1ccc(NC(=S)/C(=C(\[O-])c2ccc([N+](=O)[O-])cc2)[n+]2ccc(C(C)C)cc2)c(C)c1`, the T/C was 101 % of control under setting [4]; 98 % of control (dose: 200.0 mg/kg/injection, schedule: Q01DX009 (ip), vehicle: Klucel (hydroxypropylcellulose) (HPC)); 101 % of control (dose: 400.0 mg/kg/injection, schedule: Q01DX009 (ip), vehicle: Klucel (hydroxypropylcellulose) (HPC)).
Consider `C[C@@H]1C[C@@]2(C)C(=CC1=O)CC[C@@H]1C2=CC[C@@]2(C)[C@H]1CC[C@]2(C)O`, for which the T/C is, setting by setting: (dose: 100.0 mg/kg/injection, schedule: Q01DX009 (ip), vehicle: saline) 100 % of control; (dose: 100.0 mg/kg/injection, schedule: Q04DX003 (ip), vehicle: alcohol) 103 % of control; (dose: 200.0 mg/kg/injection, schedule: Q01DX009 (ip), vehicle: saline) 100 % of control; (dose: 200.0 mg/kg/injection, schedule: Q04DX003 (ip), vehicle: alcohol) 103 % of control; (dose: 400.0 mg/kg/injection, schedule: Q01DX009 (ip), vehicle: saline) 100 % of control; (dose: 400.0 mg/kg/injection, schedule: Q04DX003 (ip), vehicle: alcohol) 97 % of control.
Regarding `Cc1c(Cl)nc(Cl)nc1Cl`, the T/C (dose: 8.0 mg/kg/injection, schedule: Q01DX015 (ip), vehicle: carboxymethylcellulose (CMC)) was 104 % of control; the T/C (dose: 16.0 mg/kg/injection, schedule: Q01DX015 (ip), vehicle: carboxymethylcellulose (CMC)) was 98 % of control; the T/C (dose: 32.0 mg/kg/injection, schedule: Q01DX015 (ip), vehicle: carboxymethylcellulose (CMC)) is 96 % of control; the T/C under setting [5] was 101 % of control; the T/C (dose: 64.0 mg/kg/injection, schedule: Q01DX015 (ip), vehicle: carboxymethylcellulose (CMC)) is 106 % of control; the T/C (dose: 75.0 mg/kg/injection, schedule: Q01DX015 (ip), vehicle: carboxymethylcellulose (CMC)) was 98 % of control. In addition, the T/C is, setting by setting: under setting [1], 101 % of control; (dose: 150.0 mg/kg/injection, schedule: Q01DX015 (ip), vehicle: carboxymethylcellulose (CMC)) 91 % of control; under setting [2], 104 % of control; under setting [3], 104 % of control.
In the case of `CC1C(c2ccccc2)N1C(=O)Nc1ccccc1` (configuration not stated), the T/C by setting is: (dose: 100.0 mg/kg/injection, schedule: Q01DX001 (ip), vehicle: Klucel (hydroxypropylcellulose) (HPC)) 93 % of control; (dose: 200.0 mg/kg/injection, schedule: Q01DX001 (ip), vehicle: Klucel (hydroxypropylcellulose) (HPC)) 96 % of control; (dose: 400.0 mg/kg/injection, schedule: Q01DX001 (ip), vehicle: Klucel (hydroxypropylcellulose) (HPC)) 98 % of control.
Turning to `Cc1ccc(S(=O)(=O)Cl)cc1C(=O)O`, the T/C by setting is: (dose: 12.5 mg/kg/injection, schedule: Q01DX001 (ip), vehicle: saline with Tween-80) 92 % of control and 99 % of control; (dose: 25.0 mg/kg/injection, schedule: Q01DX001 (ip), vehicle: saline with Tween-80) 99 % of control and 87 % of control; (dose: 25.0 mg/kg/injection, schedule: Q01DX009 (ip), vehicle: saline with Tween-80) 102 % of control; (dose: 25.0 mg/kg/injection, schedule: Q04DX003 (ip), vehicle: saline with Tween-80) 103 % of control; (dose: 50.0 mg/kg/injection, schedule: Q01DX009 (ip), vehicle: saline with Tween-80) 93 % of control; (dose: 50.0 mg/kg/injection, schedule: Q04DX002 (ip), vehicle: saline with Tween-80) 96 % of control and 108 % of control. The T/C (dose: 50.0 mg/kg/injection, schedule: Q04DX003 (ip), vehicle: saline with Tween-80) was 97 % of control; the T/C (dose: 100.0 mg/kg/injection, schedule: Q01DX001 (ip), vehicle: saline with Tween-80) is 94 % of control and 95 % of control; the T/C (dose: 100.0 mg/kg/injection, schedule: Q01DX009 (ip), vehicle: saline with Tween-80) is 96 % of control; the T/C (dose: 100.0 mg/kg/injection, schedule: Q04DX002 (ip), vehicle: saline with Tween-80) is 104 % of control and 86 % of control and 90 % of control; the T/C (dose: 100.0 mg/kg/injection, schedule: Q04DX003 (ip), vehicle: saline with Tween-80) is 98 % of control.
In the case of `CN(C)C(N)=O`, the T/C runs as follows: (dose: 75.0 mg/kg/injection, schedule: Q01DX009 (ip), vehicle: saline) 102 % of control; (dose: 150.0 mg/kg/injection, schedule: Q01DX009 (ip), vehicle: saline) 98 % of control; (dose: 300.0 mg/kg/injection, schedule: Q01DX009 (ip), vehicle: saline) 100 % of control.
Consider `O=C(Nc1ccc(C2=NCCN2)cc1)c1ccc(CNc2ccc(C3=NCCN3)cc2)cc1`, for which the T/C (dose: 0.5 mg/kg/injection, schedule: Q01DX Z (ip), vehicle: water) is 93 % of control; the T/C (dose: 1.0 mg/kg/injection, schedule: Q01DX Z (ip), vehicle: water) is 96 % of control; the T/C (dose: 2.0 mg/kg/injection, schedule: Q01DX Z (ip), vehicle: water) was 113 % of control; the T/C (dose: 4.0 mg/kg/injection, schedule: Q01DX Z (ip), vehicle: water) was 111 % of control; the T/C (dose: 6.25 mg/kg/injection, schedule: Q01DX Z (ip), vehicle: water) was 159 % of control; the T/C (dose: 12.5 mg/kg/injection, schedule: Q01DX Z (ip), vehicle: water) was 276 % of control. Moreover, under “dose: 25.0 mg/kg/injection, schedule: Q01DX Z (ip), vehicle: water”, the T/C is 188 % of control.
Turning to `CCCCCCCNC(=S)NNC(=O)CCCC(=O)NNC(=S)NCCCCCCC`, the T/C under setting [5] was 98 % of control, the T/C under setting [1] was 96 % of control, the T/C under setting [2] was 96 % of control and the T/C under setting [3] was 90 % of control.
With `CCN(CC)CCCC(C)Nc1ccnc(/C=C/c2ccc(Br)cc2)c1` (configuration not stated), the T/C is, setting by setting: (dose: 25.0 mg/kg/injection, schedule: Q01DX009 (ip), vehicle: Klucel (hydroxypropylcellulose) (HPC)) 98 % of control; (dose: 25.0 mg/kg/injection, schedule: Q04DX003 (ip), vehicle: Klucel (hydroxypropylcellulose) (HPC)) 108 % of control; (dose: 50.0 mg/kg/injection, schedule: Q01DX009 (ip), vehicle: Klucel (hydroxypropylcellulose) (HPC)) 106 % of control; (dose: 50.0 mg/kg/injection, schedule: Q04DX003 (ip), vehicle: Klucel (hydroxypropylcellulose) (HPC)) 108 % of control and 88 % of control; under setting [1], 93 % of control; under setting [4], 97 % of control. Under setting [6], the T/C was 97 % of control.
Turning to `Nc1ccc(CCc2ccc(Cl)cc2S(=O)(=O)F)c(Cl)c1`, the T/C was 97 % of control (dose: 100.0 mg/kg/injection, schedule: Q01DX009 (ip), vehicle: saline sonified); 100 % of control (dose: 100.0 mg/kg/injection, schedule: Q04DX003 (ip), vehicle: saline sonified); 92 % of control (dose: 200.0 mg/kg/injection, schedule: Q01DX009 (ip), vehicle: saline sonified); 100 % of control (dose: 200.0 mg/kg/injection, schedule: Q04DX003 (ip), vehicle: saline sonified); 98 % of control (dose: 400.0 mg/kg/injection, schedule: Q01DX009 (ip), vehicle: saline sonified); 96 % of control (dose: 400.0 mg/kg/injection, schedule: Q04DX003 (ip), vehicle: saline sonified).
`CCOC(=O)c1[nH]c2ccccc2c1CN(CCCl)CCCl`: the T/C is, setting by setting: (dose: 2.5 mg/kg/injection, schedule: Q01DX Z (ip), vehicle: saline) 107 % of control; (dose: 5.0 mg/kg/injection, schedule: Q01DX Z (ip), vehicle: saline) 108 % of control; (dose: 10.0 mg/kg/injection, schedule: Q01DX Z (ip), vehicle: other) 120 % of control; (dose: 10.0 mg/kg/injection, schedule: Q01DX Z (ip), vehicle: saline) 120 % of control; (dose: 20.0 mg/kg/injection, schedule: Q01DX Z (ip), vehicle: other) 122 % of control.
On to `COc1ccc(CCN2C(=O)C=CC2=O)cc1OC`, for which the T/C by setting is: (dose: 5.0 mg/kg/injection, schedule: Q04DX003 (ip), vehicle: saline) 97 % of control; (dose: 10.0 mg/kg/injection, schedule: Q04DX003 (ip), vehicle: saline) 96 % of control; (dose: 20.0 mg/kg/injection, schedule: Q04DX003 (ip), vehicle: saline) 100 % of control.
As to `CNCCc1ccc(O)cc1`, the T/C is 104 % of control under setting [1], 102 % of control under setting [2] and 104 % of control under setting [3].
On to `CC(=O)CC(=O)Nc1ccc(C)cc1C`, for which the T/C is 102 % of control under setting [6]; 98 % of control (dose: 200.0 mg/kg/injection, schedule: Q04DX003 (ip), vehicle: Klucel (hydroxypropylcellulose) (HPC)); 115 % of control (dose: 400.0 mg/kg/injection, schedule: Q04DX003 (ip), vehicle: Klucel (hydroxypropylcellulose) (HPC)).
